Measured values taken from PubChem BioAssay (NCI).
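Test compounds were applied to cells in 96-well plates for 48 hours at 5 doses. The concentration for 50% growth inhibition is given as GI50. TGI denotes the concentration required for complete inhibition of growth.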 Where a SMILES comes first, the peptide text is derived from it. The star is where a group is joined. Cbz = O=C(OCc1ccccc1)*

Tests used:
Assay in all cases: NCI tumour cell line growth inhibition, 48 h
[1] = tested on: HOP-62 NSCLC
[2] = tested on: SW-620 colon
[3] = tested on: M14 melanoma
[4] = tested on: HCT-15 colon
[5] = tested on: MDA-MB-435
[6] = tested on: KM12 colon
[7] = tested on: HCT-116 colon
[8] = tested on: A498 renal
[9] = tested on: TK-10 renal

SMILES | TGI [1] [µM] | TGI [2] [µM] | TGI [3] [µM] | TGI [4] [µM] | TGI [5] [µM] | TGI [6] [µM] | TGI [7] [µM] | TGI [8] [µM] | TGI [9] [µM] | GI50 [1] [µM] | GI50 [3] [µM] | GI50 [4] [µM] | GI50 [5] [µM] | GI50 [6] [µM] | GI50 [9] [µM] | GI50 [7] [µM] | GI50 [8] [µM]
C=CCN1C[C@@H](C)N([C@@H](c2ccc(C(=O)N(CC)CC)cc2)c2cccc(OC)c2)C[C@@H]1C | > 100 | > 100 | > 100 | > 100 | > 100 | > 100 | > 100 | > 100 |  |  |  |  |  |  |  |  | 
NC(C(=O)OC(=O)c1ccccc1)C(=O)OC(=O)c1ccccc1 | > 100 | > 100 | > 100 | > 100 | > 100 | > 100 | > 100 | > 100 | > 100 |  |  |  |  |  |  |  | 
O=c1c2c3c(sc2nc2n1N=C(c1ccc([N+](=O)[O-])cc1)CS2)CCCC3 | > 100 | > 100 |  | > 100 | > 100 | > 100 | > 100 | > 100 | > 100 |  |  |  |  |  |  |  | 
CC(=O)OC1OC(c2ccoc2)C[C@@]12C1CCC3O[C@]3(C)[C@]1(C)C[C@H](OC(C)=O)[C@H]2C (stereo not given in full) |  | > 75 | > 75 | > 75 | > 75 | > 75 | > 75 | > 75 | > 75 |  |  |  |  |  |  |  | 
O=C1CCCC[C@H]1C(O)CC1CC(=O)N(c2ccccc2)C(=O)C1 (stereo not given in full) | > 100 | > 100 | > 100 | > 100 | > 100 | > 100 | > 100 | > 100 | > 100 |  |  |  |  |  |  |  | 
CN(C)/C=C/c1c2c(nc3ccccc13)C(=O)c1ccccc1C2=O | 1.32 | 5.04 | 1.92 | 2.71 | 0.206 | 3.62 | 3.26 | 9.24 | 6 |  |  |  |  |  |  |  | 
Brc1ccc(-c2cc(-c3ccc4c(c3)OCO4)c(-c3cccs3)n2Cc2ccccc2)cc1 | > 100 | > 100 | > 100 | > 100 | > 100 | > 100 | > 100 |  | > 100 |  |  |  |  |  |  |  | 
COc1cc2cc(C(=O)N3CC(CCl)c4c3cc(O)c3ccccc43)[nH]c2c(OC)c1OC (stereo not given) |  | > 50 | < 0.005 | 0.588 |  | > 50 | 5.85 | 0.82 | > 50 |  |  |  |  |  |  |  | 
CC(=O)OC(=C(C#N)C#N)c1nccnc1C(C)=O |  | > 20 | 11.8 | > 20 | > 20 | 14 |  | > 20 |  |  |  |  |  |  |  |  | 
Cc1nn(-c2ccccc2)c2nc3ccc(Cl)cc3c(-c3ccccc3)c12 | > 100 | > 100 | > 100 | > 100 | > 100 | > 100 | > 100 |  | > 100 |  |  |  |  |  |  |  | 
CCCCN1C(=O)CS/C1=N/Nc1nc2c([nH]1)c(=O)n(C)c(=O)n2C | > 100 |  | > 100 | > 100 | 40.7 | > 100 | 29.3 | > 100 | > 100 |  |  |  |  |  |  |  | 
CCOC(=O)c1cn2c(ccc3sc4ccccc4c(=O)c32)n1 | > 100 | > 100 |  | > 100 | > 100 | > 100 | > 100 | > 100 | > 100 |  |  |  |  |  |  |  | 
Nc1[nH]c(=S)c2c(N)n[nH]c2c1C(=O)Nc1ccc(Cl)cc1 |  | > 100 | > 100 | > 100 | > 100 | > 100 | > 100 | > 100 | > 100 |  |  |  |  |  |  |  | 
COc1ccc(-c2cc(-c3ccccc3)nc3c2CC(=O)Nc2ccccc2-3)cc1OC | 18.2 | > 100 | > 100 | > 100 | > 100 | > 100 |  | 50.5 | > 100 |  |  |  |  |  |  |  | 
C[C@]12CCc3sc(-c4cccc(F)c4)nc3C1=CC[C@@H]1[C@@H]2CC[C@]2(C)C(=O)CC[C@@H]12 | 11.8 |  | > 100 | 4.17 | > 100 | 17.6 | 3.56 | 17.9 | 8.29 | 3.1 | 6.62 | 1.56 | 2.97 | 3.34 | 2.77 | 1.73 | 3.2
CCc1c(C)c2ccc(OCC(=O)N=Nc3c(O)[nH]c4ccccc34)c(C)c2oc1=O |  |  |  |  |  |  |  | > 33.3 | > 33.3 |  |  |  |  |  | > 33.3 |  | > 33.3
NC(N)=NS(=O)(=O)c1ccc(NC(=O)c2ccc3nc4ccccc4c(N)c3c2)cc1 | > 100 | > 100 | > 100 | > 100 | > 100 | > 100 | > 100 |  | > 100 |  |  |  |  |  |  |  | 
CC(C)(O)CCc1ccc(O)c2c(=O)c3c(O)c4c(cc3oc12)O[C@H]1OC=C[C@@]41O | 2.43 | 27.8 |  | 14.6 | < 0.01 | 11.3 | 4.52 |  | > 100 |  |  |  |  |  |  |  | 
CCOC(=O)CNC(=O)C(C)NC(=O)C(NC(=O)OCc1ccccc1)C(C)C (stereo not drawn) (Cbz-Val-Ala-Gly-OEt; configuration not given here) | > 100 | > 100 | > 100 | > 100 | > 100 | > 100 | > 100 |  | > 100 |  |  |  |  |  |  |  | 
NC(=O)C1N=NSC1NC(=O)c1ccc([N+](=O)[O-])cc1 (stereo not given) | > 100 | > 100 | > 100 | > 100 | > 100 | > 100 | > 100 |  | > 100 |  |  |  |  |  |  |  | 
CC#CCCCC1(C)CCCNC1=S (stereo not given) |  | > 10 | > 10 | > 10 | > 10 | > 10 |  |  | > 10 |  |  |  |  |  |  |  | 
Nc1ccc(OCCCc2c(-c3ccccc3)nc(N)[nH]c2=O)cc1 | > 100 | > 100 | > 100 | > 100 | > 100 | > 100 | > 100 | > 100 |  |  |  |  |  |  |  |  | 
Cc1ccc(S(=O)(=O)N2CCCSCCN(S(=O)(=O)c3ccc(C)cc3)CCCSCC2)cc1 | > 100 | > 100 | > 100 |  | > 100 | > 100 | > 100 | > 100 | > 100 |  |  |  |  |  |  |  | 
